Consider one molecule from BindingDB's records for doi:10.1021/jm000160l (University of Maryland, 2000).

The target in assay [1] is Glyoxalase I (Pseudomonas putida). In words: Binding affinity on Pseudomonas putida glyoxalase I (GlxI) was determined.
Assay [2] deals with Glyoxalase I (Saccharomyces cerevisiae) (UniProt P50107). In words: Binding affinity on yeast glyoxalase I (GlxI) was determined.
Chain of Glyoxalase I (Saccharomyces cerevisiae) (P50107 whole entry, looked up): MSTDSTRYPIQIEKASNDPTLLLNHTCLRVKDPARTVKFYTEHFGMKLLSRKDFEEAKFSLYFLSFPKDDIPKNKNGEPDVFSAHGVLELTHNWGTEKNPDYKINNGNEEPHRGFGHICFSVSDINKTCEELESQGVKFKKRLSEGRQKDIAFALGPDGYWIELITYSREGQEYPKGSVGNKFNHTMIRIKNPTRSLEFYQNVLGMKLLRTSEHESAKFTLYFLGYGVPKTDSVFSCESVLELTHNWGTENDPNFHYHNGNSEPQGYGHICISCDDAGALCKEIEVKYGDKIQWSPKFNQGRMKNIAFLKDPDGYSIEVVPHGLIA

Regarding `CN(O)C(=O)SC[C@H](NC(=O)CC[C@H](N)C(=O)O)C(=O)NCC(=O)O` [S-(N-methyl-N-hydroxycarbamoyl)glutathione], the figures for the Ki in assay [1] and in assay [2] were 86 µM and 68 µM, respectively.
